According to ChEMBL document CHEMBL4334438, “Discovery of novel glycogen synthase kinase-3α inhibitors: Structure-based virtual screening, preliminary SAR and biological evaluation for treatment of acute myeloid leukemia” (Eur J Med Chem, 2019):

Assays:
[1] = molecular target: Serine/threonine-protein kinase N2 (Homo sapiens) (UniProt Q16513); experiment: Inhibition of recombinant human PRK2 (501 to end residues) assessed as residual activity at 1 uM using AKRRRLSSLRA as substrate measured after 40 mins in presence of [gamma33P]ATP by scintillation counting method relative to control
[2] = molecular target: Insulin receptor (Homo sapiens) (UniProt P06213); experiment: Inhibition of human IR (1005 to 1310 residues) assessed as residual activity at 1 uM using KKSRGDYMTMQIG as substrate after 40 mins by [gamma-33ATP] radiometric assay relative to control
[3] = molecular target: Ephrin type-B receptor 1 (Homo sapiens) (UniProt P54762); experiment: Inhibition of recombinant human EphB1 (564 to end residues) assessed as residual activity at 1 uM using KVEKIGEGTYGVVYK as substrate at 40 mins in presence of [gamma-33ATP] by scintillation counting based radiometry assay relative to control
[4] = molecular target: Serine/threonine-protein kinase 32A (Homo sapiens) (UniProt Q8WU08); experiment: Inhibition of recombinant full-length human STK32A at 1 uM assessed as residual activity at 1 uM using casein as substrate measured after 120 mins in presence of [gamma33P]ATP by scintillation counting method relative to control
[5] = molecular target: Tyrosine-protein kinase receptor TYRO3 (Homo sapiens) (UniProt Q06418); experiment: Inhibition of recombinant human RSE (451 to end residues) assessed as residual activity at 1 uM using KVEKIGEGTYGVVYK as substrate measured after 40 mins in presence of [gamma33P]ATP by scintillation counting method relative to control
[6] = tested on: Epidermal growth factor receptor (Homo sapiens), P00533 [L861Q]; experiment: Inhibition of recombinant human EGFR L861Q mutant (696 to end residues) assessed as residual activity at 1 uM using poly(Glu, Tyr) 4:1 as substrate at 40 mins in presence of [gamma-33ATP] by scintillation counting based radiometry assay relative to control
[7] = molecular target: Serine-protein kinase ATM (Homo sapiens) (UniProt Q13315); experiment: Inhibition of recombinant full-length human ATM at 1 uM assessed as residual activity at 1 uM using GST-cMyc-p53 as substrate measured after 40 mins by ELISA
[8] = molecular target: Protein-tyrosine kinase 2-beta (Homo sapiens) (UniProt Q14289); experiment: Inhibition of recombinant human full length PYK2 assessed as residual activity at 1 uM using poly(Glu, Tyr) 4:1 as substrate measured after 40 mins in presence of [gamma33P]ATP by scintillation counting method relative to control
[9] = molecular target: Mitogen-activated protein kinase kinase kinase kinase 5 (Homo sapiens) (UniProt Q9Y4K4); experiment: Inhibition of recombinant human MAP4K5 assessed as residual activity at 1 uM using myelin basic protein as substrate incubated for 40 mins in presence of [gamma-33ATP by scintillation counting based radiometry assay relative to control
[10] = tested on: Serine/threonine-protein kinase Sgk2 (Homo sapiens), Q9HBY8 [S416D]; experiment: Inhibition of recombinant human SGK2 S416D mutant (54 to end residues) assessed as residual activity at 1 uM using GRPRTSSFAEGKK as substrate measured after 40 mins in presence of [gamma33P]ATP by scintillation counting method relative to control
[11] = molecular target: Tyrosine-protein kinase Lyn (Homo sapiens) (UniProt P07948); experiment: Inhibition of recombinant human Lyn assessed as residual activity at 1 uM using poly(Glu, Tyr) 4:1 as substrate after 40 mins in presence of [gamma-33ATP] by scintillation counting based radiometry assay relative to control
[12] = molecular target: Protein kinase C gamma type (Homo sapiens) (UniProt P05129); experiment: Inhibition of recombinant full-length human PKCgamma assessed as residual activity at 1 uM using histone H1 as substrate measured after 40 mins in presence of [gamma33P]ATP by scintillation counting method relative to control
[13] = molecular target: Phosphatidylinositol 4-phosphate 5-kinase type-1 alpha (Homo sapiens) (UniProt Q99755); experiment: Inhibition of recombinant full-length human PIP5K1alpha at 1 uM assessed as residual activity at 1 uM using phosphatidylinositol 4-phosphate as substrate measured after 40 mins by HTRF assay
[14] = molecular target: Serine/threonine-protein kinase 16 (Homo sapiens) (UniProt O75716); experiment: Inhibition of human STK16 assessed as residual activity at 1 uM by radiometric method relative to control
[15] = molecular target: Ephrin type-A receptor 5 (Homo sapiens) (UniProt P54756); experiment: Inhibition of recombinant human EphA5 (655to 956 residues) assessed as residual activity at 1 uM using poly(Glu, Tyr) 4:1 as substrate at 40 mins in presence of [gamma-33ATP] by scintillation counting based radiometry assay relative to control
[16] = tested on: Ribosomal protein S6 kinase beta-1 (Homo sapiens), P23443 [T412E]; experiment: Inhibition of recombinant human p70S6K T412E mutant (1 to 421 residues) assessed as residual activity at 1 uM using KKRNRTLTV as substrate measured after 40 mins in presence of [gamma33P]ATP by scintillation counting method relative to control
[17] = molecular target: Testis-specific serine/threonine-protein kinase 3 (Homo sapiens) (UniProt Q96PN8); experiment: Inhibition of recombinant full-length human TSSK3 at 1 uM assessed as residual activity at 1 uM using AMARAASAAALARRR as substrate measured after 40 mins in presence of [gamma33P]ATP by scintillation counting method relative to control
[18] = molecular target: Mitogen-activated protein kinase kinase kinase 2 (Homo sapiens) (UniProt Q9Y2U5); experiment: Inhibition of recombinant full length human MEKK2 assessed as residual activity at 1 uM using myelin basic protein as substrate incubated for 40 mins in presence of [gamma-33ATP by scintillation counting based radiometry assay relative to control
[19] = molecular target: Serine/threonine-protein kinase WNK2 (Homo sapiens) (UniProt Q9Y3S1); experiment: Inhibition of human WNK2 (166 to 489 residues) assessed as residual activity at 1 uM using myelin basic protein as substrate measured after 40 mins in presence of [gamma33P]ATP by scintillation counting method relative to control
[20] = molecular target: Serine/threonine-protein kinase ULK1 (Homo sapiens) (UniProt O75385); experiment: Inhibition of human ULK1 (1 to 314 residues) assessed as residual activity at 1 uM using casein as substrate measured after 40 mins in presence of [gamma33P]ATP by scintillation counting method relative to control
[21] = molecular target: Mitogen-activated protein kinase kinase kinase 5 (Homo sapiens) (UniProt Q99683); experiment: Inhibition of recombinant human ASK1 (649 to 946 residues) assessed as residual activity at 1 uM using myelin basic protein as substrate incubated for 40 mins in presence of [gamma-33ATP] by scintillation counting based radiometry assay relative to control
[22] = molecular target: Protein kinase C theta type (Homo sapiens) (UniProt Q04759); experiment: Inhibition of recombinant full length human PKCtheta assessed as residual activity at 1 uM using histone H1 as substrate measured after 40 mins in presence of [gamma33P]ATP by scintillation counting method relative to control
Sequence of Protein kinase C theta type (Homo sapiens) (Q04759 whole entry, looked up): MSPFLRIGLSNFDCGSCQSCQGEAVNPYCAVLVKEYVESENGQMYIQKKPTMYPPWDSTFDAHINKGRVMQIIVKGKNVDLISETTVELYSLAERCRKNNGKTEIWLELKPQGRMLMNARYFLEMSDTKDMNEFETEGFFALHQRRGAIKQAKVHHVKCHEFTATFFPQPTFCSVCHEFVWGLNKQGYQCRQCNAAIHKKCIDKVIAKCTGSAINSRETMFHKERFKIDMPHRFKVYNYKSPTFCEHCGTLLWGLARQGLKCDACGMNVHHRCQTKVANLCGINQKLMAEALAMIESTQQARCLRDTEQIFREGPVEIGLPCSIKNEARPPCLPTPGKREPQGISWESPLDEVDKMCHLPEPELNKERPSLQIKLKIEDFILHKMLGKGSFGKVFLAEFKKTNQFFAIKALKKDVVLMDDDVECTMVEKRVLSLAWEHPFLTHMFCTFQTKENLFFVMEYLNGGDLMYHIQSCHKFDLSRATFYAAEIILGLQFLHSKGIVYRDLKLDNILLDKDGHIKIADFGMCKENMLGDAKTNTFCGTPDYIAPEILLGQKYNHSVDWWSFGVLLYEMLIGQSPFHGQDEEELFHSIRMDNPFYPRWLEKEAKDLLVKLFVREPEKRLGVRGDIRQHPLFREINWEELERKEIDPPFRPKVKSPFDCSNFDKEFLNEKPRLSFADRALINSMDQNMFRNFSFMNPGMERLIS

Sequence of Tyrosine-protein kinase Lyn (Homo sapiens) (P07948 2-512 limits assumed): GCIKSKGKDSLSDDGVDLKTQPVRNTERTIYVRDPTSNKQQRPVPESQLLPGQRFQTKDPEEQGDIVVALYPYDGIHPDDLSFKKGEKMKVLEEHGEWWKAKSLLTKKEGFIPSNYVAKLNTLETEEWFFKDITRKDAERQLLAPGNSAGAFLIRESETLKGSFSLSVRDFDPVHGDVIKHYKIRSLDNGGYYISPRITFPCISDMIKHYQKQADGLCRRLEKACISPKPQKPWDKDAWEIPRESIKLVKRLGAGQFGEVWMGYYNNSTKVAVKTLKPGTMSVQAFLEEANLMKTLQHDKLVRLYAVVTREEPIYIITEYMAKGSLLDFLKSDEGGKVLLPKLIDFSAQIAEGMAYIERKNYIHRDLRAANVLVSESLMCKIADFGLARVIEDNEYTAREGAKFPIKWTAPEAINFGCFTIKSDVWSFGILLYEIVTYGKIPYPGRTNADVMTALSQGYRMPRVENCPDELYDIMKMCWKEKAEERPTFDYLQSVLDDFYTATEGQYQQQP
Sequence of Insulin receptor (Homo sapiens) (P06213 28-758 limits assumed): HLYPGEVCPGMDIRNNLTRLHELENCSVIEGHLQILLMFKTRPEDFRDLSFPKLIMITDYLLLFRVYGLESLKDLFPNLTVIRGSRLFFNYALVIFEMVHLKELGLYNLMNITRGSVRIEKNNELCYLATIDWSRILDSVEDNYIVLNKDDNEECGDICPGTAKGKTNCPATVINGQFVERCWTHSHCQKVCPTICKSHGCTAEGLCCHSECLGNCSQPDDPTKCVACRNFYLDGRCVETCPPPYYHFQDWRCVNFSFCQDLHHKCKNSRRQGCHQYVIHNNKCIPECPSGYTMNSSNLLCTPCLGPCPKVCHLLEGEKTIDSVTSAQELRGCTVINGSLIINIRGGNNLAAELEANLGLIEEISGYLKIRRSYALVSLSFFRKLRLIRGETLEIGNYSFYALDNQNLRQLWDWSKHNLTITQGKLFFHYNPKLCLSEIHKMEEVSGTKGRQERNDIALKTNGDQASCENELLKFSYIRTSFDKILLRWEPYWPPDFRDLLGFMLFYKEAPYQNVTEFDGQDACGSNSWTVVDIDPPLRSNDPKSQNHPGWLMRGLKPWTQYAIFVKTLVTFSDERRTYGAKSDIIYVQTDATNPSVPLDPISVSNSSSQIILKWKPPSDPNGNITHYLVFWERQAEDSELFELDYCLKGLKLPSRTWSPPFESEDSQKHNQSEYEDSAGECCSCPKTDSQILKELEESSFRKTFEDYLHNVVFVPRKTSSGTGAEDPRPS
Sequence of Insulin receptor (Homo sapiens) (P06213 763-1382 limits assumed): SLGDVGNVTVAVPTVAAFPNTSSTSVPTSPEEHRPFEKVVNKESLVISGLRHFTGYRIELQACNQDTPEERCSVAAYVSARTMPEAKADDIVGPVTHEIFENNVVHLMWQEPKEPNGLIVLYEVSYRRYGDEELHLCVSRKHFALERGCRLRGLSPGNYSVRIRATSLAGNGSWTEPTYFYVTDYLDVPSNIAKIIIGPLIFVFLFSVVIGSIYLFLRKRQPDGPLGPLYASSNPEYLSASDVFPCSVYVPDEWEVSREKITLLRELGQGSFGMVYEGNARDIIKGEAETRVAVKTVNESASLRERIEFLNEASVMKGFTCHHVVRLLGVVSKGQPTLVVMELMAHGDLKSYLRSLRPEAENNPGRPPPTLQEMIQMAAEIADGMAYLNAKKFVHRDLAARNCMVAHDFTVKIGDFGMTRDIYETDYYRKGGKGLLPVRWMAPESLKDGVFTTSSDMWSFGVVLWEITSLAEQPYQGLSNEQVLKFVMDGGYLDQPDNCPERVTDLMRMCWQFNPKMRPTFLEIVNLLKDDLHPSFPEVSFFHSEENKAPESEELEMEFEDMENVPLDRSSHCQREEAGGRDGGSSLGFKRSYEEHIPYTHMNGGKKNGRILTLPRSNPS
Sequence of Mitogen-activated protein kinase kinase kinase 5 (Homo sapiens) (Q99683 whole entry, the tested form may be a part): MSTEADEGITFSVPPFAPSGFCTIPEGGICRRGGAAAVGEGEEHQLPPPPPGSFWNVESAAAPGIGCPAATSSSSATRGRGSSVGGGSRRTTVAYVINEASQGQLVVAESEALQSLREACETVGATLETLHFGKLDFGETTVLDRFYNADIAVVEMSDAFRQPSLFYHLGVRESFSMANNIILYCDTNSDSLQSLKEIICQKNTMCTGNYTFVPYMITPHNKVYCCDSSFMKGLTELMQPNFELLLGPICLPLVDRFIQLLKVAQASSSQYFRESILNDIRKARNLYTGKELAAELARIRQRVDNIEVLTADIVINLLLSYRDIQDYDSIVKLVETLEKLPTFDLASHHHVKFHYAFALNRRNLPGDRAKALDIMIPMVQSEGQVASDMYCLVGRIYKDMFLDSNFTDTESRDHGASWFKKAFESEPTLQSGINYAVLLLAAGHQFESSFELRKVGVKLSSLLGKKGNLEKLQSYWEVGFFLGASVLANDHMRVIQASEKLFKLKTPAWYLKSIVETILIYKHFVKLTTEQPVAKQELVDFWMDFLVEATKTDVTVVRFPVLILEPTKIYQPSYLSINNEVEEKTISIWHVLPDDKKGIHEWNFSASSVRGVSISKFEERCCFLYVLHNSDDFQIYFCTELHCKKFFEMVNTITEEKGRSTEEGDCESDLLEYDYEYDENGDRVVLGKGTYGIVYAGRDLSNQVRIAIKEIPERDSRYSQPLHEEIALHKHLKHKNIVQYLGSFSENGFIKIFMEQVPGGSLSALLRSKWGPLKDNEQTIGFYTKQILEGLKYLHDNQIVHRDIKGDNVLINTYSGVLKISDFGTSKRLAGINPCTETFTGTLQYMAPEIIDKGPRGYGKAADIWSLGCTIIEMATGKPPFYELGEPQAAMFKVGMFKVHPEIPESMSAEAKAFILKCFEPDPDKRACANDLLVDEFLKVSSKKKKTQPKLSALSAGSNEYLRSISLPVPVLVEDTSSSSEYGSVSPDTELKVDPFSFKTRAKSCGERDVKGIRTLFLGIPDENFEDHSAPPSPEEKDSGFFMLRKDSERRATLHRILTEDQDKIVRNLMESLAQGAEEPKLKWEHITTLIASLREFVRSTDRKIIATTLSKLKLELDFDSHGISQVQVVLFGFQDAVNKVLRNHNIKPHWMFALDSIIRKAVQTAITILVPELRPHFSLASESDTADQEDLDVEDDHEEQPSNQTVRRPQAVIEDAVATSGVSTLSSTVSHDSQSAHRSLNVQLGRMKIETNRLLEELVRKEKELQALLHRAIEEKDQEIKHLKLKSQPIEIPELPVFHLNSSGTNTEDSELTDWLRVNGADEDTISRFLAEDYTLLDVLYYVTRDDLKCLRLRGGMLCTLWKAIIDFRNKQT
Sequence of Serine/threonine-protein kinase 32A (Homo sapiens) (Q8WU08 whole entry): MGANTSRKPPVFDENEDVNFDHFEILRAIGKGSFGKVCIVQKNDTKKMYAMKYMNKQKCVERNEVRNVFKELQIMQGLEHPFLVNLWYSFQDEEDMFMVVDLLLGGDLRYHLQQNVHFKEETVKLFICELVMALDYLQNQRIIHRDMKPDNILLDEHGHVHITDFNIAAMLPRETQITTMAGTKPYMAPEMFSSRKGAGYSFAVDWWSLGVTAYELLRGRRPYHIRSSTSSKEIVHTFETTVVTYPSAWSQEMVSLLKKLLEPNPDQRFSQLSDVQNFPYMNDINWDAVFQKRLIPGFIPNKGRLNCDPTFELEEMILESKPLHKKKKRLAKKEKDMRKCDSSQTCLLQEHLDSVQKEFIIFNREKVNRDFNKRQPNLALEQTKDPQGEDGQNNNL
Sequence of Ribosomal protein S6 kinase beta-1 (Homo sapiens), P23443 [T412E] (P23443 whole entry T412E, looked up, the tested form may be a part): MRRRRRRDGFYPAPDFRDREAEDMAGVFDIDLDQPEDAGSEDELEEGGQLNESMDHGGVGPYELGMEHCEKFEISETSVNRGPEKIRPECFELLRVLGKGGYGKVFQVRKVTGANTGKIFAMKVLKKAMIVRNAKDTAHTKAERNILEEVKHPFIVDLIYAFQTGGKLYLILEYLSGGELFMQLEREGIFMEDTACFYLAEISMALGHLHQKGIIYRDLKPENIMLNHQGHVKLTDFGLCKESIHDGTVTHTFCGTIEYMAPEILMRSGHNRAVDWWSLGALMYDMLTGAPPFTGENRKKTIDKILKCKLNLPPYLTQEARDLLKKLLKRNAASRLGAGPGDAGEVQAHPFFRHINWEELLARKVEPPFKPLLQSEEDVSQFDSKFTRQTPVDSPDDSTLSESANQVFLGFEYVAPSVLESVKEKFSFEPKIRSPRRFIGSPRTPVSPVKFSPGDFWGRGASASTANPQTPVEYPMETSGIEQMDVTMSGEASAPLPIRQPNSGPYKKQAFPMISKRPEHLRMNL

C=CCOC(=O)c1cc(-c2ccc(/C=C3/NC(=S)NC3=O)o2)ccc1Cl
Activity [1]: 107%
Activity [2]: 108%
Activity [3]: 102%
Activity [4]: 101%
Activity [5]: 100%
Activity [6]: 106%
Activity [7]: 100%
Activity [8]: 104%
Activity [9]: 94%
Activity [10]: 108%
Activity [11]: 92%
Activity [12]: 104%
Activity [13]: 98%
Activity [14]: 90%
Activity [15]: 100%
Activity [16]: 108%
Activity [17]: 99%
Activity [18]: 98%
Activity [19]: 85%
Activity [20]: 98%
Activity [21]: 102%
Activity [22]: 96%

N=C1NC(=O)/C(=C\c2ccc(-c3cccc([N+](=O)[O-])c3)o2)S1
Activity [1]: 95%
Activity [2]: 97%
Activity [3]: 115%
Activity [4]: 100%
Activity [5]: 110%
Activity [6]: 85%
Activity [7]: 102%
Activity [8]: 103%
Activity [9]: 95%
Activity [10]: 101%
Activity [11]: 83%
Activity [12]: 105%
Activity [13]: 102%
Activity [14]: 95%
Activity [15]: 89%
Activity [16]: 99%
Activity [17]: 106%
Activity [18]: 93%
Activity [19]: 88%
Activity [20]: 98%
Activity [21]: 101%
Activity [22]: 101%
